Patent US20120252852A1 (SANOFI, priority 2011, published 2012)

How the values were obtained:
free factor Xa = free factor Xa (Homo sapiens, UniProt P00742); details: cited from earlier work
[1] = humans; cited from earlier work
[2] = Level of impurities in dependency on Otamixaban concentration and autoclaving (HPLC); type: physicochemical
Description: Liquid pharmaceutical compositions were prepared containing 1, 5 or 50 mg/mL
The appropriate pH value was adjusted by using sodium hydroxide solution (1 M sodium hydroxide) or diluted hydrochloric acid (1 M hydrochloric acid).

factor Xa = molecular target: T1, factor Xa (Homo sapiens, UniProt P00742); details: patients with stable coronary artery disease taking usual comedication; cited from earlier work
T1 construct: host or cells: blood of patients (in vivo / ex vivo)
T1 sequence (P00742 235-488 limits assumed): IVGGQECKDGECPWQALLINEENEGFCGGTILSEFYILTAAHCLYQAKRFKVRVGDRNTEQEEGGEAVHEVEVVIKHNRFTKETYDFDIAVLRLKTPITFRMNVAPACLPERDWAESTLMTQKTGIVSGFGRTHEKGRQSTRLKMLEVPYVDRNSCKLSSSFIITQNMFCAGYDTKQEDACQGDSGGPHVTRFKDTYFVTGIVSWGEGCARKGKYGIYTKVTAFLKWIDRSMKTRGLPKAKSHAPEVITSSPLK
T1 sequence (P00742 41-179 limits assumed): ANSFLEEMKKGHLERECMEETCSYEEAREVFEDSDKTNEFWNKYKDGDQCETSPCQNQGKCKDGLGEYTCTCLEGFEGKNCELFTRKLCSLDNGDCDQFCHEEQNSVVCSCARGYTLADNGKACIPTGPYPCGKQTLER

[3] = molecular target: factor Xa assembled in the prothrombinase complex (Factor Xa, Factor Va, calcium and phospholipid) (Homo sapiens, UniProt P00742); details: cited from earlier work
Chain of factor Xa assembled in the prothrombinase complex (Factor Xa, Factor Va, calcium and phospholipid) (P00742 235-488 limits assumed): as the sequence (P00742 235-488 limits assumed) above
Chain of factor Xa assembled in the prothrombinase complex (Factor Xa, Factor Va, calcium and phospholipid) (P00742 41-179 limits assumed): as the sequence (P00742 41-179 limits assumed) above
Chain of factor Xa assembled in the prothrombinase complex (Factor Xa, Factor Va, calcium and phospholipid) (P12259 29-737 partner limits assumed): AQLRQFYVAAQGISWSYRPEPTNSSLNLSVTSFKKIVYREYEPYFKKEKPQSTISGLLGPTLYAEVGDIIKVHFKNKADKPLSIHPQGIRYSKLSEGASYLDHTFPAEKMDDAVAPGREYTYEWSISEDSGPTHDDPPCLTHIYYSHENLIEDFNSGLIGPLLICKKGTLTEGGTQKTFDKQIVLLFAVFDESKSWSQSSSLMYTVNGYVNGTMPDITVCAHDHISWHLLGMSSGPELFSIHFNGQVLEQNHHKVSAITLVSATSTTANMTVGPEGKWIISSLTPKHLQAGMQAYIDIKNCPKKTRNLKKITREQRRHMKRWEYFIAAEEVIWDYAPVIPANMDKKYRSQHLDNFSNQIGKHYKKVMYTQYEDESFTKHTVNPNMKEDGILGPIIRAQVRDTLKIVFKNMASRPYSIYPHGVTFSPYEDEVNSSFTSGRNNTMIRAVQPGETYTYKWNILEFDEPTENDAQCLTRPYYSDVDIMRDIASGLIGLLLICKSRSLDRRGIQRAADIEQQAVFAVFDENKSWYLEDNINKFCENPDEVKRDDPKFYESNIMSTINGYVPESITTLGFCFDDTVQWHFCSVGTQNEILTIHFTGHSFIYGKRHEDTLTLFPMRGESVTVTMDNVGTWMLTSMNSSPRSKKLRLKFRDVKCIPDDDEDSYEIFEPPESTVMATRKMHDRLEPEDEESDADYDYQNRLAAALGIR
Chain of factor Xa assembled in the prothrombinase complex (Factor Xa, Factor Va, calcium and phospholipid) (P12259 1574-2224 partner limits assumed): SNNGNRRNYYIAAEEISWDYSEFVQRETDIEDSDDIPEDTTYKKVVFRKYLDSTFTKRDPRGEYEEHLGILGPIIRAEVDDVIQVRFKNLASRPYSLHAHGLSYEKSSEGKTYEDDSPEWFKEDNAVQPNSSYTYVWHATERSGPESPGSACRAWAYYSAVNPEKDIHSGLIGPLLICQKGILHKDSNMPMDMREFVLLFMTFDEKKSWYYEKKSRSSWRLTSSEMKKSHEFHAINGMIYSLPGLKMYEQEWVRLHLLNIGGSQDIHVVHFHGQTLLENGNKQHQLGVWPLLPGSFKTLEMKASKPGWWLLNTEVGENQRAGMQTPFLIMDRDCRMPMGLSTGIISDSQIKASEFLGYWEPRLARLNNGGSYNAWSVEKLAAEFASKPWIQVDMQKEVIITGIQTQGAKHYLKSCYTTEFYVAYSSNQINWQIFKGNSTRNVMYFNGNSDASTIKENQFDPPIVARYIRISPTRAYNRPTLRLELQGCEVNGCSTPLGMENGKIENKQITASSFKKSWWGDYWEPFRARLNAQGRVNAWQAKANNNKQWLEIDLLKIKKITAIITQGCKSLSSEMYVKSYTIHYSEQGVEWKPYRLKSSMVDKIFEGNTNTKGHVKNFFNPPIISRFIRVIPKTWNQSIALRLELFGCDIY

[4] = Level of impurities in dependency on citric acid (22.8 mmol/L) and storage time (1 mg/mL, autoclaved once, 40° C. and 75% RH, HPLC); type: physicochemical
Description: The prepared vials were autoclaved once and were stored at 40° C. and 75% RH (relative humidity).

[5] = test system: prothrombin fragments 1+2; details: highest dose regimen; versus unfractionated heparin; cited from earlier work
[6] = Level of impurities in dependency on pH and repeated autoclaving (1 mg/mL Otamixaban, citrate composition of Example 5, HPLC); type: physicochemical
Description: The appropriate pH value was adjusted by using sodium hydroxide solution (1 M sodium hydroxide) or diluted hydrochloric acid (1 M hydrochloric acid). […] [table] […] The mobile phase was filtered through a 1.5 μm filter. Typically, add 500 mL of mobile phase A to 500 mL of acetonitrile. Mix and degas. [table] [table]

Chain of free factor Xa (P00742 235-488 limits assumed): as the sequence (P00742 235-488 limits assumed) above
Chain of free factor Xa (P00742 41-179 partner limits assumed): as the sequence (P00742 41-179 limits assumed) above

COC(=O)[C@H](Cc1cccc(C(=N)N)c1)[C@@H](C)NC(=O)c1ccc(-c2cc[n+]([O-])cc2)cc1 (mixture of isomers) [Otamixaban, Methyl (2R,3R)-2-{3-[amino(imino)methyl]benzyl}-3-{[4-(1-oxidopyridin-4-yl)benzoyl]amino}butanoate]
Inhibition of free factor Xa (free factor Xa): inhibited
Clinical efficacy, safety and tolerability [1]: efficacious, safe and well tolerated
Increase of Formula III (carbamoyl-benzyl butyric acid methyl ester) ([2]; pH 4.2-4.3, 5 mg/mL, vial 5 mL, 20 min 123° C., 0 autoclaving): 0.2%
Increase of Formula III (carbamoyl-benzyl butyric acid methyl ester) ([2]; pH 4.2-4.3, 5 mg/mL, vial 5 mL, 20 min 123° C., 1 autoclaving): 0.9%
Increase of Formula III (carbamoyl-benzyl butyric acid methyl ester) ([2]; pH 4.2-4.3, 5 mg/mL, vial 5 mL, 20 min 123° C., 2 autoclaving): 1.7%
Increase of Formula III (carbamoyl-benzyl butyric acid methyl ester) ([2]; pH 4.2-4.3, 5 mg/mL, vial 5 mL, 20 min 123° C., 3 autoclaving): 2.5%
Increase of Formula III (carbamoyl-benzyl butyric acid methyl ester) ([2]; pH 4.2, 1 mg/mL, vial 50 mL, 20 min […] C., 0 autoclaving): 0.4%
Increase of Formula III (carbamoyl-benzyl butyric acid methyl ester) ([2]; pH 4.2, 1 mg/mL, vial 50 mL, 20 min […] C., 1 autoclaving): 1.3%
Increase of Formula III (carbamoyl-benzyl butyric acid methyl ester) ([2]; pH 4.2, 1 mg/mL, vial 50 mL, 20 min […] C., 2 autoclaving): 2.3%
Increase of Formula III (carbamoyl-benzyl butyric acid methyl ester) ([2]; pH 4.2, 1 mg/mL, vial 50 mL, 25 min 125° C., 0 autoclaving): 0.4%
Increase of Formula III (carbamoyl-benzyl butyric acid methyl ester) ([2]; pH 4.2, 1 mg/mL, vial 50 mL, 25 min 125° C., 1 autoclaving): 1.3%
Increase of Formula III (carbamoyl-benzyl butyric acid methyl ester) ([2]; pH 4.2, 5 mg/mL, vial 5 mL, 20 min 123° C., 0 autoclaving): 0.3%
Increase of Formula III (carbamoyl-benzyl butyric acid methyl ester) ([2]; pH 4.2, 5 mg/mL, vial 5 mL, 20 min 123° C., 1 autoclaving): 1.0%
Increase of Formula III (carbamoyl-benzyl butyric acid methyl ester) ([2]; pH 4.2, 5 mg/mL, vial 5 mL, 20 min 123° C., 2 autoclaving): 1.8%
Increase of Formula III (carbamoyl-benzyl butyric acid methyl ester) ([2]; pH 4.2, 5 mg/mL, vial 5 mL, 20 min 123° C., 3 autoclaving): 2.6%
Increase of Formula III (carbamoyl-benzyl butyric acid methyl ester) ([2]; pH 4.2, 5 mg/mL, vial 50 mL, 25 min 125° C., 0 autoclaving): 0.4%
Increase of Formula III (carbamoyl-benzyl butyric acid methyl ester) ([2]; pH 4.2, 5 mg/mL, vial 50 mL, 25 min 125° C., 1 autoclaving): 1.4%
Increase of Formula III (carbamoyl-benzyl butyric acid methyl ester) ([2]; pH 4.2, 50 mg/mL, vial 5 mL, 20 min 123° C., 0 autoclaving): 0.3%
Increase of Formula III (carbamoyl-benzyl butyric acid methyl ester) ([2]; pH 4.2, 50 mg/mL, vial 5 mL, 20 min 123° C., 1 autoclaving): 1.1%
Increase of Formula III (carbamoyl-benzyl butyric acid methyl ester) ([2]; pH 4.2, 50 mg/mL, vial 5 mL, 20 min 123° C., 2 autoclaving): 1.9%
Increase of Formula III (carbamoyl-benzyl butyric acid methyl ester) ([2]; pH 4.2, 50 mg/mL, vial 5 mL, 20 min 123° C., 3 autoclaving): 2.7%
Factor Xa inhibition in patients (factor Xa): dose-dependent, rapid direct factor Xa inhibition
Inhibition of factor Xa assembled in the prothrombinase complex [3]: inhibited
Total impurities ([4]; pH 3.0/3.1 (start/1 month), 1 month): 1.33%
Total impurities ([4]; pH 3.0/3.1 (start/1 month), start): 0.87%
Total impurities ([4]; pH 3.6/3.6 (start/1 month), 1 month): 1.06%
Total impurities ([4]; pH 3.6/3.6 (start/1 month), start): 0.83%
Total impurities ([4]; pH 4.0/4.1 (start/1 month), 1 month): 1.17%
Total impurities ([4]; pH 4.0/4.1 (start/1 month), start): 0.98%
Total impurities ([4]; pH 4.6/4.6 (start/1 month), 1 month): 1.75%
Total impurities ([4]; pH 4.6/4.6 (start/1 month), start): 1.51%
Total impurities ([4]; pH 5.1/5.1 (start/1 month), 1 month): 3.80%
Total impurities ([4]; pH 5.1/5.1 (start/1 month), start): 3.57%
Total impurities ([4]; pH 6.1/6.1 (start/1 month), 1 month): 28.16%
Total impurities ([4]; pH 6.1/6.1 (start/1 month), start): 27.12%
Reduction of prothrombin fragments 1+2 [5]: reduced prothrombin fragments 1+2 significantly more than unfractionated heparin
Increase of Formula III (carbamoyl-benzyl butyric acid methyl ester) ([6]; pH 2.5, 0 autoclaving): 0.39%
Increase of Formula III (carbamoyl-benzyl butyric acid methyl ester) ([6]; pH 2.5, 1 autoclaving): 0.71%
Increase of Formula III (carbamoyl-benzyl butyric acid methyl ester) ([6]; pH 2.5, 2 autoclaving): 1.02%
Increase of Formula III (carbamoyl-benzyl butyric acid methyl ester) ([6]; pH 2.5, 3 autoclaving): 1.32%
Increase of Formula III (carbamoyl-benzyl butyric acid methyl ester) ([6]; pH 3.0, 0 autoclaving): 0.39%
Increase of Formula III (carbamoyl-benzyl butyric acid methyl ester) ([6]; pH 3.0, 1 autoclaving): 0.74%
Increase of Formula III (carbamoyl-benzyl butyric acid methyl ester) ([6]; pH 3.0, 2 autoclaving): 1.09%
Increase of Formula III (carbamoyl-benzyl butyric acid methyl ester) ([6]; pH 3.0, 3 autoclaving): 1.43%
Increase of Formula III (carbamoyl-benzyl butyric acid methyl ester) ([6]; pH 3.2, 0 autoclaving): 0.39%
Increase of Formula III (carbamoyl-benzyl butyric acid methyl ester) ([6]; pH 3.2, 1 autoclaving): 0.76%
Increase of Formula III (carbamoyl-benzyl butyric acid methyl ester) ([6]; pH 3.2, 2 autoclaving): 1.13%
Increase of Formula III (carbamoyl-benzyl butyric acid methyl ester) ([6]; pH 3.2, 3 autoclaving): 1.50%
Increase of Formula III (carbamoyl-benzyl butyric acid methyl ester) ([6]; pH 3.5, 0 autoclaving): 0.39%
Increase of Formula III (carbamoyl-benzyl butyric acid methyl ester) ([6]; pH 3.5, 1 autoclaving): 0.81%
Increase of Formula III (carbamoyl-benzyl butyric acid methyl ester) ([6]; pH 3.5, 2 autoclaving): 1.23%
Increase of Formula III (carbamoyl-benzyl butyric acid methyl ester) ([6]; pH 3.5, 3 autoclaving): 1.65%
Increase of Formula III (carbamoyl-benzyl butyric acid methyl ester) ([6]; pH 3.7 (first row), 0 autoclaving): 0.39%
Increase of Formula III (carbamoyl-benzyl butyric acid methyl ester) ([6]; pH 3.7 (first row), 1 autoclaving): 0.87%
Increase of Formula III (carbamoyl-benzyl butyric acid methyl ester) ([6]; pH 3.7 (first row), 2 autoclaving): 1.33%
Increase of Formula III (carbamoyl-benzyl butyric acid methyl ester) ([6]; pH 3.7 (first row), 3 autoclaving): 1.80%
Increase of Formula III (carbamoyl-benzyl butyric acid methyl ester) ([6]; pH 3.7 (second row), 0 autoclaving): 0.39%
Increase of Formula III (carbamoyl-benzyl butyric acid methyl ester) ([6]; pH 3.7 (second row), 1 autoclaving): 0.84%
Increase of Formula III (carbamoyl-benzyl butyric acid methyl ester) ([6]; pH 3.7 (second row), 2 autoclaving): 1.28%
Increase of Formula III (carbamoyl-benzyl butyric acid methyl ester) ([6]; pH 3.7 (second row), 3 autoclaving): 1.71%
